How the values were obtained:
sugar beet = assay: Test B pre/postemergence sugar beet; type: in vivo, Beta vulgaris
In short: (§1)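 Response is a visual 0-to-10 score relative to untreated plants, where 0 means no effect and 10 means complete control, taken twelve to sixteen days after application. Treatments went onto soil at planting and onto foliage of 1- to 4-leaf plants, using a surfactant-containing non-phytotoxic solvent.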

purple nutsedge = assay: Test B pre/postemergence purple nutsedge; type: in vivo, Cyperus rotundus
In short: as §1

pigweed = assay: Test B pre/postemergence pigweed; type: in vivo, Amaranthus retroflexus
In short: as §1

cocklebur = assay: Test B pre/postemergence cocklebur; type: in vivo, Xanthium strumarium
In short: as §1

velvetleaf = assay: Test B pre/postemergence velvetleaf; type: in vivo, Abutilon theophrasti
In short: as §1

wheat = assay: Test B pre/postemergence wheat; type: in vivo, Triticum aestivum
In short: as §1

rape = assay: Test B pre/postemergence rape; type: in vivo, Brassica napus
In short: as §1

surinam grass = assay: Test B pre/postemergence surinam grass; type: in vivo, Brachiaria decumbens
In short: as §1

soybean = assay: Test B pre/postemergence soybean; type: in vivo, Glycine max
In short: as §1

bedstraw = assay: Test B pre/postemergence bedstraw; type: in vivo, Galium aparine; conditions: Preemergence
In short: as §1

wild oat = assay: Test B pre/postemergence wild oat; type: in vivo, Avena fatua
In short: as §1

giant foxtail = assay: Test B pre/postemergence giant foxtail; type: in vivo, Setaria faberii
In short: as §1

morningglory = assay: Test B pre/postemergence morningglory; type: in vivo, Ipomoea hederacea
In short: as §1

crabgrass = assay: Test B pre/postemergence crabgrass; type: in vivo, Digitaria sanguinalis
In short: as §1

corn = assay: Test B pre/postemergence corn; type: in vivo, Zea mays
In short: as §1

blackgrass = assay: Test B pre/postemergence blackgrass; type: in vivo, Alopecurus myosuroides
In short: as §1

[1] = Postemergence, Rate 62 g/ha, scale 0 to 10, 0 is no effect, 10 is complete control
[2] = Postemergence, Rate 125 g/ha, scale of 0 to 10 where 0 is no effect and 10 is complete control
[3] = Preemergence, Rate 62 g/ha, scale of 0 to 10 where 0 is no effect and 10 is complete control
[4] = Preemergence, Rate 125 g/ha, scale of 0 to 10 where 0 is no effect and 10 is complete control
[5] = Preemergence, Rate 250 g/ha, scale 0 (no effect) to 10 (complete control)
[6] = Rate 250 g/ha, Postemergence, scale 0 to 10, 0 is no effect, 10 is complete control
[7] = Rate 500 g/ha, Postemergence, scale 0 to 10, 0 is no effect, 10 is complete control
[8] = Preemergence, Rate 500 g/ha, scale of 0 to 10 where 0 is no effect and 10 is complete control

In the case of CC(C)N(C(=O)n1oc(=O)n(CF)c1=O)c1ccc(F)cc1 [Compound 709], the “Plant response rating, Sugarbeets” value (sugar beet; [1]) is reported as 0, the “Sugarbeets plant response rating” value (sugar beet; [2]) is reported as 0 and the “Sugarbeets plant response rating” value (sugar beet; [3]) is reported as 0. The “Plant response rating, Sugarbeets” value (sugar beet; [4]) was 0, the “Sugarbeets plant response rating” value (sugar beet; [5]) was 0 and the “Sugarbeets plant response rating” value (sugar beet; [6]) was 0. For the same compound, the “Sugarbeets plant response rating” value (sugar beet; [7]) was 0, the “Plant response rating, Nutsedge” value (purple nutsedge; [1]) was 0 and the “Nutsedge plant response rating” value (purple nutsedge; [2]) was 0. The “Nutsedge plant response rating” value (purple nutsedge; [3]) was 0, the “Plant response rating, Nutsedge” value (purple nutsedge; [4]) was 0 and the “Nutsedge plant response rating” value (purple nutsedge; [6]) was 0. For the same compound, the “Nutsedge plant response rating” value (purple nutsedge; [7]) was 6, the “Plant response rating, Redroot pigweed” value (pigweed; [1]) was 5 and the “Redroot pigweed plant response rating” value (pigweed; [2]) was 5. For the same compound, the “Redroot pigweed plant response rating” value (pigweed; [3]) was 0, the “Plant response rating, Redroot pigweed” value (pigweed; [4]) was 0 and the “Redroot pigweed plant response rating” value (pigweed; [5]) was 5. The “Redroot pigweed plant response rating” value (pigweed; [6]) was 8, the “Redroot pigweed plant response rating” value (pigweed; [7]) was 8 and the “Plant response rating, Cocklebur” value (cocklebur; [1]) was 0. The “Cocklebur plant response rating” value (cocklebur; [2]) was 0, the “Cocklebur plant response rating” value (cocklebur; [3]) was 0 and the “Plant response rating, Cocklebur” value (cocklebur; [4]) was 0. For the same compound, the “Cocklebur plant response rating” value (cocklebur; [5]) was 0, the “Plant response rating, Cocklebur” value (cocklebur; [8]) was 0 and the “Cocklebur plant response rating” value (cocklebur; [6]) was 0. For the same compound, the “Cocklebur plant response rating” value (cocklebur; [7]) was 3, the “Plant response rating, Velvetleaf” value (velvetleaf; [1]) was 4 and the “Velvetleaf plant response rating” value (velvetleaf; [2]) was 4. The “Velvetleaf plant response rating” value (velvetleaf; [3]) was 0, the “Plant response rating, Velvetleaf” value (velvetleaf; [4]) was 0 and the “Velvetleaf plant response rating” value (velvetleaf; [5]) was 0. The “Velvetleaf plant response rating” value (velvetleaf; [6]) was 4, the “Velvetleaf plant response rating” value (velvetleaf; [7]) was 6 and the “Plant response rating, Wheat” value (wheat; [1]) was 0. For the same compound, the “Wheat plant response rating” value (wheat; [2]) was 0, the “Wheat plant response rating” value (wheat; [3]) was 0 and the “Plant response rating, Wheat” value (wheat; [4]) was 0. The “Wheat plant response rating” value (wheat; [5]) was 0, the “Wheat plant response rating” value (wheat; [6]) was 0 and the “Wheat plant response rating” value (wheat; [7]) was 0. For the same compound, the “Plant response rating, Rape” value (rape; [1]) was 0, the “Rape plant response rating” value (rape; [2]) was 0 and the “Rape plant response rating” value (rape; [3]) was 0. The “Plant response rating, Rape” value (rape; [4]) was 0, the “Rape plant response rating” value (rape; [5]) was 0 and the “Rape plant response rating” value (rape; [6]) was 0. For the same compound, the “Rape plant response rating” value (rape; [7]) was 0, the “Plant response rating, B. signalgrass” value (surinam grass; [1]) was 0 and the “B. signalgrass plant response rating” value (surinam grass; [2]) was 0. For the same compound, the “B. signalgrass plant response rating” value (surinam grass; [3]) was 0, the “Plant response rating, B. signalgrass” value (surinam grass; [4]) was 0 and the “B. signalgrass plant response rating” value (surinam grass; [5]) was 0. For the same compound, the “Plant response rating, B. signalgrass” value (surinam grass; [8]) was 0, the “B. signalgrass plant response rating” value (surinam grass; [6]) was 0 and the “B. signalgrass plant response rating” value (surinam grass; [7]) was 0. For the same compound, the “Plant response rating, Soybean” value (soybean; [1]) was 1, the “Soybean plant response rating” value (soybean; [2]) was 3 and the “Soybean plant response rating” value (soybean; [3]) was 0. For the same compound, the “Plant response rating, Soybean” value (soybean; [4]) was 0, the “Soybean plant response rating” value (soybean; [5]) was 0 and the “Soybean plant response rating” value (soybean; [6]) was 3. For the same compound, the “Soybean plant response rating” value (soybean; [7]) was 4, the “Bedstraw plant response rating” value (bedstraw; Rate 62 g/ha, scale of 0 to 10 where 0 is no effect and 10 is complete control) was 0 and the “Plant response rating, Bedstraw” value (bedstraw; Rate 125 g/ha, scale of 0 to 10 where 0 is no effect and 10 is complete control) was 0. The “Bedstraw plant response rating” value (bedstraw; Rate 250 g/ha, scale 0 (no effect) to 10 (complete control)) was 0, the “Plant response rating, Bedstraw” value (bedstraw; Rate 500 g/ha, scale of 0 to 10 where 0 is no effect and 10 is complete control) was 0 and the “Plant response rating, Wild oats” value (wild oat; [1]) was 0. For the same compound, the “Wild oats plant response rating” value (wild oat; [2]) was 0, the “Wild oats plant response rating” value (wild oat; [3]) was 0 and the “Plant response rating, Wild oats” value (wild oat; [4]) was 0. The “Wild oats plant response rating” value (wild oat; [5]) was 0, the “Wild oats plant response rating” value (wild oat; [6]) was 0 and the “Wild oats plant response rating” value (wild oat; [7]) was 0. The “Plant response rating, Giant foxtail” value (giant foxtail; [1]) was 3, the “Giant foxtail plant response rating” value (giant foxtail; [2]) was 4 and the “Giant foxtail plant response rating” value (giant foxtail; [3]) was 2. For the same compound, the “Plant response rating, Giant foxtail” value (giant foxtail; [4]) was 4, the “Giant foxtail plant response rating” value (giant foxtail; [5]) was 7 and the “Giant foxtail plant response rating” value (giant foxtail; [6]) was 8. The “Giant foxtail plant response rating” value (giant foxtail; [7]) was 9, the “Morningglory plant response rating” value (morningglory; [2]) was 0 and the “Morningglory plant response rating” value (morningglory; [3]) was 0. The “Plant response rating, Morningglory” value (morningglory; [4]) was 0, the “Morningglory plant response rating” value (morningglory; [5]) was 0 and the “Morningglory plant response rating” value (morningglory; [6]) was 2. The “Morningglory plant response rating” value (morningglory; [7]) was 6, the “Plant response rating, Crabgrass” value (crabgrass; [1]) was 2 and the “Crabgrass plant response rating” value (crabgrass; [2]) was 3. The “Crabgrass plant response rating” value (crabgrass; [3]) was 2, the “Plant response rating, Crabgrass” value (crabgrass; [4]) was 3 and the “Crabgrass plant response rating” value (crabgrass; [5]) was 7. The “Crabgrass plant response rating” value (crabgrass; [6]) was 6, the “Crabgrass plant response rating” value (crabgrass; [7]) was 8 and the “Plant response rating, Corn” value (corn; [1]) was 0. The “Corn plant response rating” value (corn; [2]) was 0, the “Corn plant response rating” value (corn; [3]) was 0 and the “Plant response rating, Corn” value (corn; [4]) was 0. The “Corn plant response rating” value (corn; [5]) was 0, the “Corn plant response rating” value (corn; [6]) was 0 and the “Corn plant response rating” value (corn; [7]) was 0. The “Plant response rating, Blackgrass” value (blackgrass; [1]) was 0, the “Blackgrass plant response rating” value (blackgrass; [2]) was 0 and the “Blackgrass plant response rating” value (blackgrass; [3]) was 0. For the same compound, the “Plant response rating, Blackgrass” value (blackgrass; [4]) was 0, the “Blackgrass plant response rating” value (blackgrass; [5]) was 0 and the “Plant response rating, Blackgrass” value (blackgrass; [8]) was 0. The “Blackgrass plant response rating” value (blackgrass; [6]) was 0 and the “Blackgrass plant response rating” value (blackgrass; [7]) was 0.
